From article PMC10538245, “Fragment merging approach for design, synthesis, and biological assessment of urea/acetyl hydrazide clubbed thienopyrimidine derivatives as GSK-3β inhibitors” (BMC Chemistry, 2023)
Like-named read-outs stand apart in the source and are kept apart here. Blank lines part the entries; values can stand above or below the molecule they belong to.

Experiments:
GSK-3β [1] = molecular target: T1, GSK-3β (Homo sapiens, UniProt P49841); settings: cited from earlier work
GSK-3β [2] = molecular target: T1, GSK-3β; assay: GSK-3β kinase inhibition, Z'-LYTE FRET assay (Thermo Fisher SelectScreen); format: biochemical; settings: for inhibition at 100 µM: 100 μM single dose; for IC50: five doses 10 nM–100 µM
U251 = assay: NCI 60-cell line one dose antiproliferative assay; format: cell-based; settings: Homo sapiens, U-251; U251, CNS Cancer, 10 µM one dose; read-out: Percent inhibition (cell growth inhibition %)
Source text: (§1) The National Cancer Institute "NCI", NIH, Bethesda, Maryland, USA (www.dtp.nci.nih.gov) chose six of the final compounds for the Developmental Therapeutic Program (DTP), codes (5a, 5b, 5c, 5d, 6a, 6b). The NCI screening service will favor compounds with drug-like modes of action based on computer-aided design. Selection The criterion for screening is the possibility of the submitted compounds to provide diversity to the NCI small molecule chemical collection. This screen employs 60 different Leukemia, melanoma, and additional tumor cell lines of the human from brain, kidney, lung, ovary, colon, breast, and prostate cancers. All compounds were picked based on their NCI codes. NSC: D-820696/1, NSC: D-820697/1, NSC: D-820698/1, NSC: D-820699/1, NSC: D-820700/1, NSC: D-820701/1. The initial 10 µM one dose percent inhibition assay was performed on the entire NCI 60 cell panel to examine the different chemotypes of this work. The results are presented as a percentage of cell growth on each of the 60 NCI cell line panels for each of the investigated substances in Table 2.
(§2) The NCI cancer screening procedure includes a comparison of all substances to the sixty NCI cell line panel representing leukemia, NSCLC, cell lines from breast cancer, prostate cancer, melanoma, CNS cancer, renal cancer, ovarian cancer, and colon cancer at a single point of 10 uM. The results of the single-dose screen can be presented using a mean graph.

SF-539 = assay: NCI 60-cell line one dose antiproliferative assay; format: cell-based; settings: Homo sapiens; SF-539, CNS Cancer, 10 µM one dose; read-out: Percent inhibition (cell growth inhibition %)
Source text: as §1, §2

PC-3 = assay: NCI 60-cell line one dose antiproliferative assay; format: cell-based; settings: Homo sapiens; PC-3, Prostate Cancer, 10 µM one dose; read-out: Percent inhibition (cell growth inhibition %)
Source text: as §1, §2

SN12C = assay: NCI 60-cell line one dose antiproliferative assay; format: cell-based; settings: Homo sapiens, Renal Cancer, 10 µM one dose, read-out: Percent inhibition (cell growth inhibition %)
Source text: as §1, §2

SF-295 = assay: NCI 60-cell line one dose antiproliferative assay; format: cell-based; settings: Homo sapiens; SF-295, CNS Cancer, 10 µM one dose; read-out: Percent inhibition (cell growth inhibition %)
Source text: as §1, §2

HCT-116 = assay: NCI 60-cell line one dose antiproliferative assay; format: cell-based; settings: Homo sapiens; HCT-116, Colon Cancer, 10 µM one dose; read-out: Percent inhibition (cell growth inhibition %)
Source text: as §1, §2

HCT-15 = assay: NCI 60-cell line one dose antiproliferative assay; format: cell-based; settings: Homo sapiens; HCT-15, Colon Cancer, 10 µM one dose; read-out: Percent inhibition (cell growth inhibition %)
Source text: as §1, §2

UO-31 = assay: NCI 60-cell line one dose antiproliferative assay; format: cell-based; settings: Homo sapiens; UO-31, Renal Cancer, 10 µM one dose; read-out: Percent inhibition (cell growth inhibition %)
Source text: as §1, §2

SNB-19 = assay: NCI 60-cell line one dose antiproliferative assay; format: cell-based; settings: Homo sapiens; SNB-19, CNS Cancer, 10 µM one dose; read-out: Percent inhibition (cell growth inhibition %)
Source text: as §1, §2

A498 = assay: NCI 60-cell line one dose antiproliferative assay; format: cell-based; settings: Homo sapiens; A498, Renal Cancer, 10 µM one dose; read-out: Percent inhibition (cell growth inhibition %)
Source text: as §1, §2

RPMI-8226 = assay: NCI 60-cell line one dose antiproliferative assay; format: cell-based; settings: Homo sapiens; RPMI-8226, Leukemia, 10 µM one dose; read-out: Percent inhibition (cell growth inhibition %)
Source text: as §1, §2

NCI-H23 = assay: NCI 60-cell line one dose antiproliferative assay; format: cell-based; settings: Homo sapiens; NCI-H23, Non-Small Cell Lung Cancer, 10 µM one dose; read-out: Percent inhibition (cell growth inhibition %)
Source text: as §1, §2

CAKI-1 = assay: NCI 60-cell line one dose antiproliferative assay; format: cell-based; settings: Homo sapiens; CAKI-1, Renal Cancer, 10 µM one dose; read-out: Percent inhibition (cell growth inhibition %)
Source text: as §1, §2

MCF7 = assay: NCI 60-cell line one dose antiproliferative assay; format: cell-based; settings: Homo sapiens; MCF7, Breast Cancer, 10 µM one dose; read-out: Percent inhibition (cell growth inhibition %)
Source text: as §1, §2

MDA-MB-231/ATCC = assay: NCI 60-cell line one dose antiproliferative assay; format: cell-based; settings: Homo sapiens, Breast Cancer, 10 µM one dose, read-out: Percent inhibition (cell growth inhibition %)
Source text: as §1, §2

M14 = assay: NCI 60-cell line one dose antiproliferative assay; format: cell-based; settings: Homo sapiens; M14, Melanoma, 10 µM one dose; read-out: Percent inhibition (cell growth inhibition %)
Source text: as §1, §2

K-562 = assay: NCI 60-cell line one dose antiproliferative assay; format: cell-based; settings: Homo sapiens, K562; K-562, Leukemia, 10 µM one dose; read-out: Percent inhibition (cell growth inhibition %)
Source text: as §1, §2

OVCAR-5 = assay: NCI 60-cell line one dose antiproliferative assay; format: cell-based; settings: Homo sapiens; OVCAR-5, Ovarian Cancer, 10 µM one dose; read-out: Percent inhibition (cell growth inhibition %)
Source text: as §1, §2

T-47D = assay: NCI 60-cell line one dose antiproliferative assay; format: cell-based; settings: Homo sapiens, T47D, Breast Cancer, 10 µM one dose, read-out: Percent inhibition (cell growth inhibition %)
Source text: as §1, §2

UACC-62 = assay: NCI 60-cell line one dose antiproliferative assay; format: cell-based; settings: Homo sapiens; UACC-62, Melanoma, 10 µM one dose; read-out: Percent inhibition (cell growth inhibition %)
Source text: as §1, §2

NCI-H322M = assay: NCI 60-cell line one dose antiproliferative assay; format: cell-based; settings: Homo sapiens, Non-Small Cell Lung Cancer, 10 µM one dose, read-out: Percent inhibition (cell growth inhibition %)
Source text: as §1, §2

SNB-75 = assay: NCI 60-cell line one dose antiproliferative assay; format: cell-based; settings: Homo sapiens; SNB-75, CNS Cancer, 10 µM one dose; read-out: Percent inhibition (cell growth inhibition %)
Source text: as §1, §2

LOX IMVI = assay: NCI 60-cell line one dose antiproliferative assay; format: cell-based; settings: Homo sapiens, Melanoma, 10 µM one dose, read-out: Percent inhibition (cell growth inhibition %)
Source text: as §1, §2

786–0 = assay: NCI 60-cell line one dose antiproliferative assay; format: cell-based; settings: Homo sapiens; 786–0, Renal Cancer, 10 µM one dose; read-out: Percent inhibition (cell growth inhibition %)
Source text: as §1, §2

NCI-H522 = assay: NCI 60-cell line one dose antiproliferative assay; format: cell-based; settings: Homo sapiens; NCI-H522, Non-Small Cell Lung Cancer, 10 µM one dose; read-out: Percent inhibition (cell growth inhibition %)
Source text: as §1, §2

T1 sequence (P49841 whole entry): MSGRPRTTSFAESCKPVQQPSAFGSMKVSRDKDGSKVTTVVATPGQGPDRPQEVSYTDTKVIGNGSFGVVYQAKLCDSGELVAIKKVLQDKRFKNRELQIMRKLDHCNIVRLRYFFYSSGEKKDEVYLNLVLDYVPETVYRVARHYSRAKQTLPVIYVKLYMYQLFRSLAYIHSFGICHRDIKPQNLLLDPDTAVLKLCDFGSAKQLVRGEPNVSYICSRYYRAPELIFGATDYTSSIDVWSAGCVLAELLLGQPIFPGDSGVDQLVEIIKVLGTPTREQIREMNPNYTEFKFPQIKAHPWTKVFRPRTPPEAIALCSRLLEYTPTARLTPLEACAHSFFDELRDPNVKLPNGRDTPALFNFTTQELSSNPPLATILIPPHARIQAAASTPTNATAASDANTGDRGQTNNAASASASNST

Structure (SMILES): COc1ccc(-c2cc3c(NC(=O)c4cccc(F)c4)ncnc3o2)cc1 [II]
- IC50 (GSK-3β [1]): > 35 µM

- inhibition at 100 µM (GSK-3β [2]): 70%
- IC50 (GSK-3β [2]): 28 µM
- melting point: 300 °C
Structure (SMILES): Cc1cccc(NC(=O)Nc2ncnc3sc4c(c23)CCCC4)c1 [9b, 1-(5,6,7,8-Tetrahydrobenzo[4,5]thieno[2,3-d]pyrimidin-4-yl)-3-(m-tolyl)urea]

- melting point: 320 to 321 °C
Structure (SMILES): O=C(COc1ncnc2sc3c(c12)CCCC3)NNC(=O)c1ccc([N+](=O)[O-])cc1 [6b]

- inhibition at 100 µM (GSK-3β [2]): 82%
- IC50 (GSK-3β [2]): 17.3 µM
- melting point: 270 to 272 °C
Structure (SMILES): O=C(COc1ncnc2sc3c(c12)CCCC3)NNC(=S)Nc1ccccc1 [6a]
- inhibition at 10 µM (U251): 3.33%
- inhibition at 10 µM (SF-539): 2.42%
- inhibition at 10 µM (PC-3): 3.65%
- inhibition at 10 µM (SN12C): 3.79%
- inhibition at 10 µM (SF-295): 2.64%
- inhibition at 10 µM (HCT-116): 1.5%
- inhibition at 10 µM (HCT-15): 0.17%
- inhibition at 10 µM (UO-31): 14.8%
- inhibition at 10 µM (SNB-19): 5.27%
- inhibition at 10 µM (A498): 47%
- inhibition at 10 µM (RPMI-8226): 3.86%
- inhibition at 10 µM (NCI-H23): 3.1%
- inhibition at 10 µM (CAKI-1): 1.14%
- inhibition at 10 µM (MCF7): 12.3%
- inhibition at 10 µM (MDA-MB-231/ATCC): 3.71%
- inhibition at 10 µM (M14): 0.96%
- inhibition at 10 µM (K-562): 7.06%
- inhibition at 10 µM (OVCAR-5): 3.88%
- inhibition at 10 µM (T-47D): 6.64%
- inhibition at 10 µM (UACC-62): 7.2%
- inhibition at 10 µM (NCI-H322M): 0.95%
- inhibition at 10 µM (SNB-75): 14.6%
- inhibition at 10 µM (LOX IMVI): 1.31%
- inhibition at 10 µM (786–0): 1.23%
- inhibition at 10 µM (NCI-H522): 5.09%
